Source: the NIST ThermoML archive (doi:10.1021/je900759f)
± gives the expanded uncertainty stated by the source.

Assay: molar heat capacity at constant pressure
Conditions: 101.33 kPa, Crystal, Vacuum adiabatic calorimetry

O=C([O-])c1ccccc1C(=O)O.[K+] [potassium 2-carboxybenzoate]
Conditions | molar heat capacity at constant pressure [J/K/mol]
78.74 K | 81.22 ± 0.51
81.08 K | 82.76 ± 0.52
83.42 K | 85 ± 0.53
85.62 K | 86.29 ± 0.54
88.11 K | 88.06 ± 0.55
90.01 K | 90.07 ± 0.58
92.06 K | 91.25 ± 0.58
94.25 K | 92.66 ± 0.59
96.3 K | 94.19 ± 0.6
98.21 K | 95.73 ± 0.61
100.26 K | 97.26 ± 0.62
102.01 K | 98.56 ± 0.63
104.21 K | 100.09 ± 0.64
105.82 K | 101.39 ± 0.64
107.72 K | 102.68 ± 0.65
109.48 K | 103.75 ± 0.66
111.23 K | 104.92 ± 0.67
112.99 K | 106.1 ± 0.67
114.45 K | 107.52 ± 0.68
116.5 K | 108.7 ± 0.69
118.55 K | 109.99 ± 0.7
120.9 K | 111.65 ± 0.71
122.65 K | 112.71 ± 0.71
126.02 K | 114.95 ± 0.72
128.9 K | 117.28 ± 0.74
131.81 K | 119.26 ± 0.75
134.65 K | 120.84 ± 0.76
137.63 K | 123.15 ± 0.77
140.07 K | 124.62 ± 0.78
143.44 K | 126.5 ± 0.79
146.3 K | 128.75 ± 0.81
149.29 K | 130.28 ± 0.82
152.07 K | 132.04 ± 0.83
155.1 K | 134.02 ± 0.84
158.03 K | 135.88 ± 0.85
161.04 K | 137.98 ± 0.86
163.86 K | 139.4 ± 0.87
166.86 K | 141.12 ± 0.88
169.72 K | 142.95 ± 0.89
172.65 K | 144.78 ± 0.9
175.6 K | 146.73 ± 0.91
178.52 K | 148.14 ± 0.92
181.46 K | 150.06 ± 0.93
185.51 K | 152.18 ± 0.95
189.58 K | 154.71 ± 0.96
192.49 K | 156.69 ± 0.97
195.39 K | 157.97 ± 0.98
198.33 K | 160.11 ± 0.99
201.39 K | 161.41 ± 1
204.34 K | 163.34 ± 1
207.27 K | 164.59 ± 1
210.19 K | 166.59 ± 1
213.12 K | 168.36 ± 1
216.13 K | 169.91 ± 1.1
219.11 K | 171.34 ± 1.1
222.05 K | 173.08 ± 1.1
224.97 K | 174.49 ± 1.1
228.05 K | 176.26 ± 1.1
230.83 K | 177.91 ± 1.1
233.76 K | 178.97 ± 1.1
236.83 K | 180.98 ± 1.1
239.77 K | 182.23 ± 1.1
243.54 K | 184.12 ± 1.1
247.46 K | 186.25 ± 1.1
250.44 K | 188.14 ± 1.2
253.42 K | 189.68 ± 1.2
256.45 K | 190.76 ± 1.2
259.37 K | 192.3 ± 1.2
262.36 K | 193.82 ± 1.2
265.34 K | 195.71 ± 1.2
268.16 K | 196.89 ± 1.2
271.14 K | 198.67 ± 1.2
274.12 K | 200.21 ± 1.2
277.08 K | 201.26 ± 1.2
280.08 K | 203.28 ± 1.2
283.06 K | 204.58 ± 1.3
286.04 K | 205.65 ± 1.3
289.09 K | 207.51 ± 1.3
292.02 K | 208.57 ± 1.3
294.94 K | 210.1 ± 1.3
298.02 K | 211.04 ± 1.3
300.8 K | 213.17 ± 1.3
303.87 K | 214.11 ± 1.3
306.8 K | 215.52 ± 1.3
309.73 K | 216.94 ± 1.3
312.51 K | 218.12 ± 1.3
315.58 K | 219.65 ± 1.4
318.36 K | 221.3 ± 1.4
321.29 K | 222.01 ± 1.4
324.37 K | 223.43 ± 1.4
327.29 K | 224.96 ± 1.4
330.37 K | 226.61 ± 1.4
333.44 K | 228.14 ± 1.4
336.37 K | 229.67 ± 1.4
339.3 K | 230.85 ± 1.4
342.37 K | 232.15 ± 1.4
345.3 K | 233.33 ± 1.4
348.37 K | 234.39 ± 1.4
351.3 K | 236.4 ± 1.4
354.23 K | 237.46 ± 1.5
357.16 K | 239.23 ± 1.5
360.08 K | 240.52 ± 1.5
363.01 K | 241.35 ± 1.5
365.94 K | 243 ± 1.5
368.87 K | 243.71 ± 1.5
371.83 K | 244.81 ± 1.5
374.87 K | 246.77 ± 1.5
377.94 K | 248.3 ± 1.5
380.93 K | 249.42 ± 1.5
383.91 K | 250.96 ± 1.5
386.89 K | 252.02 ± 1.6
390.03 K | 253.44 ± 1.6
393.01 K | 254.98 ± 1.6
395.98 K | 255.93 ± 1.6
